Source: US20150065567A1, “1-PHENYLALKANECARBOXYLIC ACID DERIVATIVES FOR THE TREATMENT OF ALZHEIMER'S DISEASE AND MULTIPLE SCLEROSIS” (Chiesi Farmaceutici S.p.A., priority 2013, published 2015)
Where two headings read alike, the source gives them in different places.

Legend:
[1] = system: transgenic mouse models of AD; conditions: cited from earlier work
[2] = rats; cited from earlier work
[3] = stated after the mice and rats data; cited from earlier work
[4] = guinea-pigs, cited from earlier work
[5] = system: Notch intracellular cleavage in human embryonic kidney 293swe cells; conditions: at 5 μM, HEK 293swe cells; cited from earlier work
[6] = dogs, cited from earlier work
[7] = system: Aβ42 secretion in human neuroglioma cells over-expressing the Swedish mutated APP (H4swe); conditions: read-out: IC50 for lowering Aβ42 secretion; cited from earlier work
[8] = target: COX-1 (Homo sapiens, UniProt P23219); conditions: concentrations up to 100 μM; cited from earlier work
[9] = mice, cited from earlier work
[10] = system: TNFα; conditions: healthy subjects, short-term administration; cited from earlier work
[11] = system: astrocyte-microglia co-culture (mixed glial cell culture) exposed to Aβ1-42; assay: M1/M2 marker mRNA expression (RT-qPCR) in mixed glial culture exposed to Aβ1-42; type: cell-based, C57BL/6 mice
Procedure: C57BL/6 mice are purchased from Charles River. Mixed glial cell cultures were prepared from the brains of 1-3 day newborn mice. Briefly, after carefully removing meninges and large blood vessels, the brains were pooled and then dissociated by manual dispersion with a fire-polished Pasteur pipette. The cells were allowed to attach and grow at 37° C. in DMEM supplemented with 10% fetal bovine serum (FBS) (Euroclone), 4 mM L-glutamine, 200 U/ml penicillin/streptomycin in a water saturated atmosphere containing 5% CO2 for two week.
Soluble Aβ 1-42 were dissolved in sterile water to a final concentration of 2.5 mM, divided into aliquots and frozen. For experiments, mixed glial cells were incubated with soluble (not aggregated) Aβ 1-42, added at a concentration of 10 μM, in presence of CHF5074 (solved in 0.2% DMSO) or vehicle. Incubation was carried out for different times (from 1 to 8 days) in a Neurobasal/B27 medium. At the end of these periods, neuronal cell death by necrosis was evaluated by measuring the amount of lactate dehydrogenase (LDH) released into the culture medium using the CytoTox 96-non-radioactive cytotoxicity assay (Promega).
Total RNA was purified from cultured cells using the RNeasy Mini Kit for total RNA extractions (Qiagen). RNA was reverse transcribed using the Quantitect® Reverse Transcription Kit (Qiagen) with optimized mix of oligo-dT and random primers as primer and 1 μg of total RNA from mixed primary culture or co-culture. The reverse transcription reaction were performed in a total volume of 20 μL containing 5×RT-Buffer (that included dNTPs and Mg^2+), 50 U RT (Reverse trascriptase), 20 U RNase Inhibitor in RNAse-DNase free water for 10 min at 25° C., 2 h at 37° C. and 10 min at 85° C. Individual 25 μL SYBR Green real-time PCR reactions consisted of 2 μL of cDNA, 12.5 μL of 2× iQ™ SYBR Green Supermix (Bio-Rad), and 1.5 μL of each 10 μM optimized forward and reverse primers in 7.5 μL RNase-free water.
The PCR were performed on a Bio-Rad iCycler Detection System using a 3-stage program: 3 min at 50° C., 10 min at 95° C. and 40 cycles of 30 sec at 94° C. and 45 secat 60° C. For standardization of quantification, β-actin were amplified simultaneously. Sets of primer were designed to amplify by Real-time RT-PCR (q-RT-PCR) and RT-PCR genes expressed by classically activated (M1) microglia: • TNFα (Tumor Necrosis Factor α); • IL-1β (Interleukin1β); • iNOS (inducible Nitric Oxide Sinthase); and by alternatively activated (M2) microglia: • ARG1 (Arginase 1); • MRC1 (C-type mannose receptor 1); • TREM2 (Triggering Receptor Expressed on Myeloid cells-2). Primer3plus was used as primer designing tool and then checked the oligos (synthetized by Invitrogen) to verify melting temperatures and quality of the sequences.
Data were analyzed with Student's t-test for independent data. P<0.05 was considered as significant.
The effect of CHF5074 on the inflammatory response induced by Aβ was examined. Mixed astrocyte-microglia co-cultures were exposed to Aβ with or without CHF5074 at 3 μM concentration and examined for cytokine expression after 2 or 8 days. For classical activation of microglia, the expression of iNOS, beside TNFα and IL-1β was analyzed (see FIG. 2).
The alternative microglial activation markers (M2) in mixed glial cultures exposed to Aβ with and without CHF5074 for 2 days or 8 days were also investigated (see FIG. 3).

[12] = target: T1, COX-2 (Homo sapiens, UniProt P35354); conditions: concentrations up to 300 μM; cited from earlier work
T1 sequence (P35354 18-604): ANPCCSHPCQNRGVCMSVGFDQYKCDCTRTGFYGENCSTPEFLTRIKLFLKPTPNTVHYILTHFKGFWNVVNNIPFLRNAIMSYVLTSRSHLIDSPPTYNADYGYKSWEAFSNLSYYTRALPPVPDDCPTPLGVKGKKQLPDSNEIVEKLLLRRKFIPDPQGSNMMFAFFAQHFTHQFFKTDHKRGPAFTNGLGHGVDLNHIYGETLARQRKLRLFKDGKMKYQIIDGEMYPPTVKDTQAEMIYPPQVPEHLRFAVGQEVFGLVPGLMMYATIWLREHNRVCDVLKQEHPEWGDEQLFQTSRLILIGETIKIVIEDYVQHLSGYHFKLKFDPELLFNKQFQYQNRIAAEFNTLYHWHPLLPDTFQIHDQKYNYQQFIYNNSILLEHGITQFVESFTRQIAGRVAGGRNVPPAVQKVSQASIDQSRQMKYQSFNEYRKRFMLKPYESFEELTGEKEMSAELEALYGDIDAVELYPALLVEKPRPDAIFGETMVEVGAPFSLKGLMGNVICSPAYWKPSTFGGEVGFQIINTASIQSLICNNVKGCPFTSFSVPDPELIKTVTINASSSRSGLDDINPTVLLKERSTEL

[13] = system: NICD-responsive genes; conditions: at 100 μM; cited from earlier work
[14] = system: AD patients; conditions: cited from earlier work
[15] = system: dendritic spine density; conditions: mice; cited from earlier work

Chain of COX-1 (P23219 24-599): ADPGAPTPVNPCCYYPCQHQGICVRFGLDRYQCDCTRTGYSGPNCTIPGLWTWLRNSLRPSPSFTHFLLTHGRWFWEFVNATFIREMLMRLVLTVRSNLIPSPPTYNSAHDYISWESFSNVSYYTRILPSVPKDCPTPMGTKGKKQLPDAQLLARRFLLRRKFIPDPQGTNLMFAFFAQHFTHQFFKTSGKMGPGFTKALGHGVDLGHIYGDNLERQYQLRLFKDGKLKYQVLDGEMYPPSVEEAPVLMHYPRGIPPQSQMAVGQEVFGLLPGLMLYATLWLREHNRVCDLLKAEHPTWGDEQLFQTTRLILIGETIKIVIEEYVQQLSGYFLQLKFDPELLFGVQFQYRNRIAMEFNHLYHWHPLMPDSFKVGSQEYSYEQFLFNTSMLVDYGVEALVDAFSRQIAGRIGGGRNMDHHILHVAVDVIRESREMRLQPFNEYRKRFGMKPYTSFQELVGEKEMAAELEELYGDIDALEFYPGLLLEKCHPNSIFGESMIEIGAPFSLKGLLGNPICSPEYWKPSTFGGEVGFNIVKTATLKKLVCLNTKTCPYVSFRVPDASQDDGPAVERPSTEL

O=C(O)C1(c2ccc(-c3ccc(Cl)c(Cl)c3)c(F)c2)CC1 [CHF 5074, 1-(3′,4′-dichloro-2-fluorobiphenyl-4-yl)cyclopropanecarboxylic acid]
tolerability ([1]; 60 mg/kg/day, prolonged treatment for 4-9 months): well tolerated | neuropathological and behavioral activity ([1]; oral doses of 60 mg/kg/day): active | oral absorption [2]: 50% | brain levels as % of the corresponding plasma concentrations [3]: 3-14% | plasma elimination half-life t1/2 ([4]; after oral administration): ≈ 30 hours | brain penetration [4]: 3-9% | effects on Notch intracellular cleavage [5]: no effects were observed | oral absorption ([6]; oral route): 80-100% | plasma elimination t1/2 [6]: ≈ 24 hours | IC50 [7]: 3.6 µM | inhibitory activity on COX-1 [8]: does not display inhibitory activity | oral absorption ([9]; oral): 74% | plasma elimination t1/2 [9]: 12 h | TNFα level in cerebrospinal fluid [10]: reduce TNFα level | ARG1 expression ([11]; 3 μM with 10 μM Aβ1-42, 2 days): no change | IL-1β mRNA expression ([11]; 3 μM with 10 μM Aβ1-42, 2 days): significantly decreased | TNFα mRNA expression ([11]; 3 μM with 10 μM Aβ1-42, 2 days): significantly decreased | iNOS mRNA expression ([11]; 3 μM with 10 μM Aβ1-42, 2 days): significantly decreased | increase of TREM2 mRNA over the basal value ([11]; 3 μM with 10 μM Aβ1-42, 2 days): ~60% | MRC1 mRNA level ([11]; 3 μM with 10 μM Aβ1-42, 2 days, Aβ alone reduced MRC1 to about 50% of basal): near a three-fold increase | M2 mRNAs (MRC1, TREM2 and ARG1) expression ([11]; 3 μM with 10 μM Aβ1-42, 8 days): None of the tested M2 mRNAs (MRC1, TREM2 and ARG1) appeared modified | TNFα, IL1β and iNOS (M1) expression levels ([11]; 3 μM with 10 μM Aβ1-42, 8 days): does not modify | inhibitory activity on COX-2 [12]: does not display inhibitory activity | expression profile of several NICD-responsive genes [13]: does not alter

CC(C)[C@H](O)C(=O)N[C@@H](C)C(=O)N[C@@H]1C(=O)N(C)CCc2ccccc21 [semagacestat]
cognition and ability to complete activities of daily living versus placebo ([14]; interim analysis of two Phase 3 trials): worsened over time to a statistically significantly higher rate | rate of skin cancer compared to placebo ([14]; two 21-month Phase 3 trials, more than 2,600 AD patients): increased rate of skin cancer | dendritic spine density [15]: decrease dendritic spine density
